pIC50: −log10 of the molar value.

The target in this assay is T1, PRMT8 (Homo sapiens, UniProt Q9NR22).
T1 construct: Full-length human PRMT8 (NM_019854.4) isoform 1 transcript clone; made in house; host or cells: E. coli BL21(DE3) Gold
T1 sequence (Q9NR22 whole entry, canonical isoform): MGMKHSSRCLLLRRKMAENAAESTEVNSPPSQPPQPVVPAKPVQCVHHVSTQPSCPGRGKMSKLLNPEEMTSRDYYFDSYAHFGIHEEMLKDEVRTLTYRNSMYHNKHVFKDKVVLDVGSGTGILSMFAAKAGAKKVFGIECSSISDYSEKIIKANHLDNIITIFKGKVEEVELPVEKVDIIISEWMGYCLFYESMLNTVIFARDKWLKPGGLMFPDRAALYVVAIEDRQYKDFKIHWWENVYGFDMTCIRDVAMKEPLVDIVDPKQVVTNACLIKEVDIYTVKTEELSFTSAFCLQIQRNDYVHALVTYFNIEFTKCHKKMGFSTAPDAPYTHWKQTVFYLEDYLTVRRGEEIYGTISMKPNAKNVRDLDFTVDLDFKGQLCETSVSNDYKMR
Put plainly: PRMT8 Biochemical Assay (3H-SAM Flashplate, peptide substrate). As to conditions: 30 min preincubation, room temperature. The text has this:
S-adenosylmethionine (SAM), S-adenosylhomocysteine (SAH), bicine, Tween20, dimethylsulfoxide (DMSO), bovine skin gelatin (BSG), isopropyl-β-D-thiogalactopyranoside (IPTG), and Tris(2-carboxyethyl)phosphine hydrochloride solution (TCEP) were purchased from Sigma-Aldrich at the highest level of purity possible. ^3H-SAM was purchase from American Radiolabeled Chemicals with a specific activity of 80 Ci/mmol. 384-well streptavidin Flashplates were purchased from PerkinElmer.
Peptide representative of human histone H4 residues 31-45 was synthesized with an N-terminal linker-affinity tag motif and a C-terminal amide cap by 21st Century Biochemicals. The peptide was purified by high-performance liquid chromatography (HPLC) to greater than 95% purity and confirmed by liquid chromatography mass spectrometry (LC-MS). The sequence was Biot-Ahx-[…]-amide (SEQ ID NO.:8).
The resulting construct encodes an N-terminal GST tag and a thrombin cleavage sequence ([…] […] […] […]) (SEQ ID NO.:9) fused directly to Met 1 of PRMT8.
E. coli (BL21(DE3) Gold, Stratagene) made competent by the CaCl2 method were transformed with the PRMT8 construct and ampicillin selection. Protein over-expression was accomplished by growing the PRMT8 expressing E. coli clone and inducing expression with 0.3 mM IPTG at 16° C. The culture was grown for 12 hours, harvested by centrifugation, and stored at −80° C. for purification.
The column was washed with 50 mM phosphate buffer, 100 mM NaCl, 5% glycerol, 5 mM (3-mercaptoethanol, pH 7.8 and PRMT8 was eluted by 100 mM phosphate in the same buffer. Protein was concentrated and buffer was exchanged to 50 mM Tris, 300 mM NaCl, 10% glycerol, 5 mM β-mercaptoethanol, pH 7.8 by ultrafiltration. The purity of recovered protein was 89%.
General Procedure for PRMT8 Enzyme Assays on Peptide Substrates.
The assays were all performed in a buffer consisting of 20 mM Bicine (pH=7.6), 1 mM TCEP, 0.005% BSG, and 0.002% Tween 20, prepared on the day of use. Compounds in 100% DMSO (1 ul) were spotted into a polypropylene 384-well V-bottom plates (Greiner) using a Platemate Plus outfitted with a 384-channel head (Thermo Scientific). DMSO (1 ul) was added to Columns 11, 12, 23, 24, rows A-H for the maximum signal control and 1 ul of SAH, a known product and inhibitor of PRMT8, was added to columns 11, 12, 23, 24, rows I-P for the minimum signal control. A cocktail (40 ul) containing the PRMT8 enzyme was added by Multidrop Combi (Thermo-Fisher). The compounds were allowed to incubate with PRMT8 for 30 min at room temperature, then a cocktail (10 ul) containing ^3H-SAM and peptide was added to initiate the reaction (final volume=51 ul). The final concentrations of the components were as follows: PRMT8 was 1.5 nM, ^3H-SAM was 50 nM, non-radiolabeled SAM was 550 nM, peptide was 150 nM, SAH in the minimum signal control wells was 1 mM, and the DMSO concentration was 2%. The assays were stopped by the addition of non-radiolabeled SAM (10 ul) to a final concentration of 400 uM, which dilutes the ^3H-SAM to a level where its incorporation into the peptide substrate is no longer detectable. 50 ul of the reaction in the 384-well polypropylene plate was then transferred to a 384-well Flashplate and the biotinylated peptides were allowed to bind to the streptavidin surface for at least 1 hour before being washed once with 0.1% Tween20 in a Biotek ELx405 plate washer. The plates were then read in a PerkinElmer TopCount plate reader to measure the quantity of ^3H-labeled peptide bound to the Flashplate surface, measured as disintegrations per minute (dpm) or alternatively, referred to as counts per minute (cpm).
Where dpm=disintegrations per minute, cmpd=signal in assay well, and min and max are the respective minimum and maximum signal controls.
Where top and bottom are the normally allowed to float, but may be fixed at 100 or 0 respectively in a 3-parameter fit. […]
`CN(CCN)Cc1c[nH]nc1-c1ccsc1` [Compound 3] showed a pIC50 of 5.52 to 6.00.
The compound `CN(CCN)Cc1c[nH]nc1-c1cncnc1` [Compound 4] had a negative logarithm of the IC50 (pIC50) of 5.52 to 6.00.
The result for `CN(CCN)Cc1c[nH]nc1-c1cccs1` [Compound 5] reads 5.00 to 5.52; that for `CN(CCN)Cc1c[nH]nc1-c1ccco1` [Compound 6], 5.00 to 5.52.
Next, `CN(CCN)Cc1c[nH]nc1-c1ccoc1` [Compound 7]: 5.52 to 6.00; `CN(CCN)Cc1c[nH]nc1-c1cnn(C)c1` [Compound 8]: 5.00 to 5.52.
The result for `CN(CCN)Cc1c[nH]nc1-c1ccc2scnc2c1` [Compound 9] reads 6.00 to 7.00; that for `Cc1noc(C)c1-c1n[nH]cc1CN(C)CCN` [Compound 10], at most 5.00; that for `COc1ncc(-c2n[nH]cc2CN(C)CCN)cn1` [Compound 11], 5.52 to 6.00.
In the case of `CN(CCN)Cc1c[nH]nc1-c1cn[nH]c1` [Compound 12], the pIC50 was 5.52 to 6.00.
The result for `CN(CCN)Cc1c[nH]nc1-c1cnc2[nH]ccc2c1` [Compound 13] reads 6.00 to 7.00; that for `CN(CCN)Cc1c[nH]nc1-c1cc[nH]n1` [Compound 14], at most 5.00.
As to `CN(CCN)Cc1c[nH]nc1-c1ccnn1C` [Compound 15], the pIC50 is 5.00 to 5.52.
The result for `CCn1cc(-c2n[nH]cc2CN(C)CCN)cn1` [Compound 16] reads 6.00 to 7.00.
Turning to `CN(CCN)Cc1c[nH]nc1-c1cnn(-c2ccccc2)c1` [Compound 17], the pIC50 is 6.00 to 7.00.
The result for `CN(CCN)Cc1c[nH]nc1-c1cnn(CCO)c1` [Compound 18] reads 5.52 to 6.00; that for `CN(CCN)Cc1c[nH]nc1-c1ccc2cnn(C)c2c1` [Compound 19, N^1-methyl-N^1-((3-(1-methyl-1H-indazol-6-yl)-1H-pyrazol-4-yl)methyl)ethane-1,2-diamine], 6.00 to 7.00.
Next, `CN(CCN)Cc1c[nH]nc1-c1ccc2ncnn2c1` [Compound 20]: 5.52 to 6.00.
Compound `CN(CCN)Cc1c[nH]nc1-c1ccc2nccn2c1` [Compound 21, N^1-((3-(imidazo[1,2-a]pyridin-6-yl)-1H-pyrazol-4-yl)methyl)-N^1-methylethane-1,2-diamine] gave a pIC50 of 6.00 to 7.00.
`CC(C)n1cc(-c2n[nH]cc2CN(C)CCN)cn1` [Compound 22] had a pIC50 of 6.00 to 7.00.
Take `CC(C)Cn1cc(-c2n[nH]cc2CN(C)CCN)cn1` [Compound 23, N^1-((2′-isobutyl-3,4′-bi(1H-pyrazol)-4-yl)methyl)-N^1-methylethane-1,2-diamine]: the pIC50 was 6.00 to 7.00.
Next, `CN(CCN)Cc1c[nH]nc1-c1cnn(Cc2ccccc2)c1` [Compound 24, N^1-((1′-benzyl-3,4′-bi(1H-pyrazol)-4-yl)methyl)-N^1-methylethane-1,2-diamine]: 6.00 to 7.00; `CN(CCN)Cc1c[nH]nc1-c1ccc2[nH]ncc2c1` [Compound 27, N^1-((3-(1H-indazol-5-yl)-1H-pyrazol-4-yl)methyl)-N^1-methylethane-1,2-diamine]: 6.00 to 7.00; `CN(CCN)Cc1c[nH]nc1-c1cnc(C2CC2)nc1` [Compound 28]: 5.52 to 6.00.
For `CN(CCN)Cc1c[nH]nc1-c1ccc[nH]1` [Compound 29], the pIC50 is 5.00 to 5.52.
With `CN(CCN)Cc1c[nH]nc1-c1cccc2[nH]ncc12` [Compound 30], the pIC50 is 5.00 to 5.52.

For the origin of these results see patent US9630961B2, “Arginine methyltransferase inhibitors and uses thereof” (Epizyme, Inc., priority 2013, dated 2017).
